Series [1] has as its target T1, Human erythrocyte acetylcholinesterase (Homo sapiens, UniProt P22303).
T1 construct: Human erythrocyte acetylcholinesterase (type XIII, Sigma Israel); purchased Sigma Israel type XIII; host or cells: human erythrocytes
The series is described as follows: In vitro measurement of acetylcholinesterase (AChE) inhibition (Ellman method). Format: biochemical. Conditions: at time of peak activity, incubation 15 to 60 minutes at 37°C. On the procedure:
Human erythrocyte acetylcholinesterase (type XIII, Sigma Israel), was prepared in a stock solution of 1U/ml, containing Triton (1%) and bovine serum albumin (0.05%) in phosphate buffer (pH 8). The enzyme (0.05U) was incubated with 3-5 different concentrations of test compound (in triplicate) for periods of from 15 to 60 minutes at 37°C. […] The percentage inhibition of AChE by each concentration of drug is calculated by comparison with that of enzyme in the absence of drug.

Series [2] has as its system mice. In words: Survival time of mice in hypobaric hypoxic episode. Format: in vivo. The source says: The model is based on that described in Nakanishi, M. et al. Life Sci. (1973) 13: 467; Oshiro, et al., J. Med. Chem. (1991) 34: 2004-2013; and US Patent 4,788,130.
A 12 liter desiccator (desiccator A) and a 2.5 liter desiccator (desiccator B) were separately connected to a vacuum pump. Desiccator B was disconnected and allowed to equilibrate with room air whilst desiccator A was evacuated to a pressure of 100mmHg. Four male ICR albino mice (22-28g) were placed in desiccator B. Desiccator B was then closed to room air and connected to desiccator A. The pressure inside desiccator B was monitored using a mercury manometer and at the point the pressure in desiccator B reached 200mmHg (usually within 14 seconds), the two desiccators were disconnected from the vacuum pump and the pump switched off. The survival time from the moment of induction of hypoxia to the time of cessation of respiration was recorded. for each mouse for a maximum of 15 minutes after which time room air was reintroduced to desiccator B. Survivors were monitored for signs of lethargy or vitality.
Effect of drug treatment was assessed as the percent of the survival time of the drug treated group with respect to the saline injected or vehicle injected control group. Control groups were run twice, before and after each experimental group and consisted of 8 mice in groups of 4 mice to ensure a constant residual volume of oxygen in all tests. The effect of each dose of test drug was determined in duplicate i.e. two groups of 4 mice.
Positive reference drugs were sodium pentobarbital at a dose of 40 mg/kg, and diazepam 10 mg/kg given 0.5h prior to hypoxia, physostigmine 0.2 and 0.4 mg/kg and neostigmine 0.2 mg/kg given sc 30 min before hypoxia. Methyl atropine 1 mg/kg was given sc. 10 min. before physostigmine.
The volume of injection was 0.2-0.3 mL per mouse (10 mL/kg). The initial dose was about one third of the reported LD50 for acetylcholine esterase inhibition. If no protection could be obtained, the dose was further increased to the nearest non-toxic dose. In case of protection, the dose was further reduced in an attempt to locate the "protective" dose range.

Series [3] is described as follows: Acute toxicity in mice (sub-cutaneous, lethality within 6 hours). Conditions: mouse, in vivo, sc; for selectivity ratio: LD50 divided by ED50 (acetylcholine esterase ex vivo), read-out: Therapeutic Ratio (LD/AC); for LD50 at 6 h: sub-cutaneous, mice, within 6 hours. On the procedure: Drugs were administered sub-cutaneously in at least 3 doses, to a minimum of 10 mice per dose. […] Therapeutic Ratio was calculated as LD50 divided by ED50(acetylcholine esterase ex vivo).

For series [4], the system named is MAO-A. In words: Inhibition of MAO activity ex vivo (brain tissue), 5-HT substrate. Type of series: in vivo, mice. The settings on record: mouse brain tissue. On the procedure:
(§1) Male Sabra mice, weighing 45-50g were injected with test compound solutions (prepared in 0.9% saline). Each dose was administered to two or three mice. The mice were sacrificed two hours after drug administration or at a time corresponding to the peak AChE inhibition time (see Table 6). The brain and liver were rapidly dissected and stored in appropriate vials on ice. The tissues were weighed, diluted to 1/20 in sucrose 0.3M and stored at -20°C before performance of the MAO assay described above. The results given in Table 6 relate to measurements made on brain tissue only.

Series [5] deals with MAO-B. The series is described as follows: Inhibition of MAO activity ex vivo (brain tissue), PEA substrate. Format: in vivo, mice. The settings on record: mouse brain tissue. On the procedure: as §1
Series [6] concerns mice. The series is described as follows: Closed head injury in mice: reference memory, Morris water maze. Format: in vivo. Conditions: Morris water maze after CHI, compared to saline treated controls (Figure 1). On the procedure: Morris Water Maze Teat: the water maze consists of a circular aluminium pool, 1m in diameter and 60cm in depth, filled with water to a depth of 17.5cm. The hidden goal platform is a glass vessel (15cm diameter x 16. 5cm height) placed upside down at a fixed location in the pool, 1cm below the surface of the water. The water temperature is maintained at 24°C and the pool is always placed in the same position in the room to provide the same extra-maze cues. Prior to CHI (as described in Example 3 above), mice were given 3 trials per day for 5 consecutive days to establish a baseline performance - measured as the latency to find the platform from the same start location. Commencing 24hr after CHI, mice were retested daily for 2 weeks in 3 trials per day.
It appears that immediately post-CHI mice forget the location of the goal.

Series [7] has as its system mice. In words: Closed head injury (CHI) in mice: motor function, neurological severity score (NSS). Type of series: in vivo. The settings on record: sc at ED50 for acetylcholinesterase inhibition, once 15 min after CHI. On the procedure: The procedure for closed head injury followed was as described for rats in Shohami et al. (J. Neurotrauma (1993) 10(2) 109-119) with changes as described.
Animals: Male Sabra mice (Hebrew University strain) weighing 34-40g were used. They were housed in groups of 10 per cage, in a 12hr:12hr light:dark cycle. Food and water were provided ad libitum.
Trauma was induced under ether anesthesia. A longitudinal incision was performed in the skin covering the skull and the skin retracted to expose the skull. The head was fixed manually at the lower plane of the impact apparatus. A weight of 333g was delivered by an electric device from a height of 3cm to the left hemisphere, 1-2mm lateral to the midline in the midcoronal plane.
One point was awarded for the lack of a tested reflex or for the inability to perform the tasks outline in the Table. The maximal score that can be reached at 1 hour post-CHI is 25 points and 21 at later times. The difference in NSS at 1hr and at any other time reflects the recovery, and is referred to as NSS. An NSS score of 15-19 at 1hr denotes severe injury, 11-14 moderate injury and less than 10 mild injury.

Setting [8] is: 4.1 mg/kg sc, 60 min before hypoxia.
Setting [9] is: 6.2 mg/kg sc, 60 min before hypoxia.

Where a name gives a salt, the structure may show the parent alone.

T1 sequence (P22303 32-617 isoform P22303-2 limits assumed): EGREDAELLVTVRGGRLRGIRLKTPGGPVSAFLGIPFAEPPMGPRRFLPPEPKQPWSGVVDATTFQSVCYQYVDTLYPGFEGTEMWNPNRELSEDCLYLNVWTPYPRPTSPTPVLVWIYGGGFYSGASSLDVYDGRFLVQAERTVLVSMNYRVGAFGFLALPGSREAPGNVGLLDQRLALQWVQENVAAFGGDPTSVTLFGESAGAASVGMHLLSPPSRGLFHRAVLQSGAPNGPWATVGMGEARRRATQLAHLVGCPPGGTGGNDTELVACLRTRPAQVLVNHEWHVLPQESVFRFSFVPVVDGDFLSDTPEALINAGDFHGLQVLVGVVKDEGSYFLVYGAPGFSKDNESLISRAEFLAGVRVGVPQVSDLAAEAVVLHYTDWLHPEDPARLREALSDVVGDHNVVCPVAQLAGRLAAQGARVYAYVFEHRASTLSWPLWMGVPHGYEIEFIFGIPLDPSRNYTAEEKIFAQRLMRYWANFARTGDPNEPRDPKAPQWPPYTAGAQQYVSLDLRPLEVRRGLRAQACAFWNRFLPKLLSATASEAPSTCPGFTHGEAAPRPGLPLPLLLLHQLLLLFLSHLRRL

For `C#CCNCCc1cccc(OC(=O)N(C)C)c1` [Compound 11], in series [1], the 50% inhibitory concentration (IC50) came to 820 nM. Further, the “Protection (% of control)” value is reported as 302±212 % of control in series [2] (2 mg/kg sc, 30 min before hypoxia); 128±40 % of control in series [2] (2 mg/kg sc, 60 min before hypoxia); 501±201 % of control in series [2] (4.1 mg/kg sc, 30 min before hypoxia); 416±211 % of control in series [2] (setting [8]); 331±168 % of control in series [2] (setting [9]). Also, the selectivity ratio in series [3] stood at 13.8. The same compound had a 50% lethal dose (LD50) at 6 h in series [3] of 44.2 µmol/kg. In addition, the “MAO-A Inhibition Ex vivo ED50” value in series [4] was 40 µmol/kg. Besides, the “MAO-B Inhibition Ex vivo ED50” value in series [5] is recorded as >>30 µmoles/kg.

On to `C#CCNC(C)Cc1cccc(OC(=O)N(C)C)c1` (stereo not shown) [Compound 16], for which the half-maximal inhibitory concentration (IC50) in series [1] was determined as 370 nM. Also, the “Protection (% of control)” value in series [2] (setting [8]) was 335±202 % of control; in series [2] (setting [9]), 324±155 % of control; in series [2] (15 mg/kg sc, 60 min before hypoxia), “toxic”. In addition, the selectivity ratio in series [3] was determined as 18.3. In series [3], this compound registered a median lethal dose (LD50) at 6 h of 42 µmol/kg. In series [4], the “MAO-A Inhibition Ex vivo ED50” value is greater than 20 µmol/kg. Besides, the “MAO-B Inhibition Ex vivo ED50” value in series [5] was greater than 20 µmol/kg.

The compound `C#CCN(C)CCc1cccc(OC(=O)N(C)C)c1` [Compound 12] registered an IC50 in series [1] of 880 nM. In addition, the “Protection (% of control)” value in series [2] (4.5 mg/kg sc, 60 min before hypoxia) was 97±36 % of control. In addition, the “Protection (% of control)” value in series [2] (7 mg/kg sc, 60 min before hypoxia) is on record as 217±120 % of control. In series [3], the selectivity ratio stood at 11.5 and the median lethal dose (LD50) at 6 h came to 46 µmol/kg. In addition, the “MAO-A Inhibition Ex vivo ED50” value in series [4] came out at 4 µmol/kg. The “MAO-B Inhibition Ex vivo ED50” value in series [5] was determined as 21 µmol/kg.

The compound `C#CCNC(C)Cc1cccc(OC(=O)N(C)CC)c1` (stereo not drawn) [Compound 17, 3-(N-Me,N-Etcarbamyloxy)α-methyl, N-propargyl phenethylamine.HCl] registered a 50% inhibitory concentration (IC50) in series [1] of 36000 nM. Also, the “latency to find the platform” value in series [6] is reported as “reduction in latency”. The “Protection (% of control)” value in series [2] (31 mg/kg sc, 60 min before hypoxia) is recorded as 149±44 % of control; in series [2] (62 mg/kg sc, 60 min before hypoxia) it was 419±122 % of control; in series [2] (94 mg/kg sc, 60 min before hypoxia), 281±158 % of control. For the same compound, the selectivity ratio in series [3] came to 9.4. Further, the median lethal dose (LD50) at 6 h in series [3] came to 600 µmol/kg. The “MAO-A Inhibition Ex vivo ED50” value in series [4] is greater than 40 µmol/kg. Moreover, the “MAO-B Inhibition Ex vivo ED50” value in series [5] worked out at 40 µmol/kg. Moreover, the “ΔNSS, 24 hr post-CHI” value in series [7] (saline 4.75±0.17) was 5.58±0.38. For the same compound, in series [7] (saline 5.83±0.36), the “ΔNSS, 7 days post-CHI” value stood at 6.92±0.36. In addition, the “ΔNSS, 14 days post-CHI” value in series [7] (saline 5.96±0.4) was determined as 7.83±0.53.

As a reminder, the IC50 is the concentration that inhibits the measured activity by half. Low readings indicate greater potency, high ones weaker potency. Usually LD50 stands for the dose expected to kill half of the subjects tested. A low value points to greater toxicity.
